From article PMC8551334 (Scientific Reports, 2021)
Converted amounts (≈) assume the structure as drawn. Read-outs that look alike come from different tables or passages of the source.

Key:
DENV-3 [1] = test: Time course assay for virucidal activity; assay type: cell-based, dengue virus; settings: for Time taken to achieve 50% viral infectivity inhibition: co-incubation with DENV-3
Experimental: Vero cells (1 × 10^5 cells/well) were grown overnight in a 24-well plate. […] Cells were infected with the flavonoid-treated virus and incubated at 37 °C for 1 h. Then, the unabsorbed virus was removed, and the cells were washed and overlaid with 1 mL of overlay medium. After 4 days, the reduction in foci was determined by immunostaining.

DENV-3 progeny [2] = test: Post-infection assay, intracellular DENV-3 progeny, qRT-PCR; assay type: cell-based, dengue virus; settings: for IC50: Dengue virus, DENV3, 48 h treatment, mean ± SEM, read-out: IC50 against DENV-3 progeny, qRT-PCR
Experimental: (§1) Viral RNA extraction was performed using QIAamp^R Viral RNA extraction kit (QIAGEN, Germany), and viral RNA copy number was quantified using the genesig Real-Time qRT-PCR Standard Kit (PrimerDesign, UK). The reactions were in a final volume of 20 μL containing 10 μL of the master mix, 1 μL of probe/primer mix, 4 μL of nuclease-free water, and 5 μL of viral RNA template. Quantitative PCR was performed using a CFX96 Touch™ Real-Time PCR Detection System (Bio-Rad, USA.) with the following conditions: 10 min at 55 °C (reverse transcription), 2 min at 95 °C (enzyme activation) followed by 50 cycles of amplification (10 s at 95 °C, 60 s at 60 °C). The viral RNA copy number was determined based on the threshold cycles (Ct) and standard curve generated from known RNA standards.
(§2) To determine the activity of flavonoids in inhibiting the intracellular viral progeny, Vero cells (1 × 10^5 cells/well) in a 24-wells plate were infected with DENV-3 (MOI = 0.1) for 1 h at 37 °C. […] After 48 h, the viral supernatant was collected, and twofold dilution was used to reinfect fresh monolayer of Vero cells, and the reduction in viral titer was quantified using FFURA and qRT-PCR.
(§3) The maximum non-toxic dose (MNTD80) and 50% of inhibition (IC50) of flavonoids in Vero cells were calculated using Prism software (GraphPadPrism8, CA, USA) by applying four-parameter logistic non-linear regression model. The selectivity index (SI) was calculated as SI = CC50/IC50. Data presented are the mean ± SEM of three independent experiments. The student t-test was used to analyze the antiviral activity of flavonoids compared to a positive control (*p < 0.05, **p < 0.01, ***p < 0.001, ****p < 0.0001).

DENV-3 [3] = test: Virucidal assay against extracellular DENV-3, qRT-PCR (viral RNA copy number); assay type: cell-based, dengue virus; settings: for IC50: Dengue virus, DENV3, extracellular DENV-3, reduction in viral RNA copy number, mean ± SEM
Experimental: as §1
(§4) After 1 h, the flavonoid-treated virus was used to infect Vero cells at 37 °C for 1 h. Then, the unabsorbed virus was removed, and the cells were washed and overlaid with 1 mL of overlay medium. After 4 days, the reduction in foci was determined by immunostaining. Another parallel experiment was carried out by replacing the overlay medium with DMEM supplemented with 2% FBS to determine the reduction in viral RNA copy number by qRT-PCR as previously described.
as §3

DENV-3 [4] = test: Attachment assay; assay type: cell-based, dengue virus
Experimental: Vero cells (1 × 10^5 cells/well) were grown overnight in a 24-well plate. […] After 1 h, the flavonoid-treated virus is incubated on ice for 15 min. Next, pre-chilled Vero cells were infected with the pre-chilled flavonoid-treated virus at 4 °C for 1 h to allow virus attachment. Then, the unabsorbed virus was removed, and the cells were washed and overlaid with 1 mL of overlay medium. After 4 days, the reduction in foci was determined by immunostaining.

Vero cells [5] = test: Cytotoxicity of flavonoids in Vero cells by MTS assay; assay type: cell-based, African green monkey; settings: 48 h; for Concentrations up to which no significant cytotoxic effects were seen: African green monkey; for MNTD80 (maximum non-toxic dose, 80% of cells viable): Vero cells, MTS assay, mean ± SEM
Experimental: (§5) The cytotoxic potential of flavonoids in Vero cells was assessed by MTS assay. Briefly, confluent Vero cells in a 96 well plate were treated with different concentrations of flavonoids in triplicates with DMEM containing 2% FBS. After 2 days, 20 μL of 3-(4,5-Dimethylthiazol-2-yl)-5-(3-carboxymethoxyphenyl)-2-(4-sulfophenyl)-2H-tetrazolium (MTS) reagent (Promega, France) was added to each well. After 1 h of incubation at 37 °C, the cells were agitated, and the absorbance was measured at 490 nm in a microplate reader (Tecan, Infinite M2000, Switzerland). Maximum non-toxic dose (MNTD80) and 50% cytotoxic concentration (CC50) were calculated by non-linear regression using prism software (GraphPadPrism8, USA).
as §3

[6] = as above; assay type: cell-based, African green monkey; settings: African green monkey
Experimental: as §5, §3

DENV-3 [7] = test: Entry assay; assay type: cell-based, dengue virus
Experimental: Pre-chilled DENV-3 (80 FFU/well) in the absence of flavonoids were added to the pre-chilled Vero cells and incubated at 4 °C to allow virus attachment. […] After that, the medium containing flavonoids was removed, and Vero cells were washed and treated with acidic PBS (pH 3) for 60 s to inactivate the extracellular virus. After 60 s, the acidic PBS was neutralized by alkaline PBS (pH 11) in each well. Next, cells were then washed with serum-free media and overlaid with 1 mL of overlay medium. After 4 days, the reduction in foci was determined by immunostaining.

Vero cells [8] = tested on: Vero cells; parameters: method as in Moghaddam et al. 15; settings: ref Moghaddam et al. 15; cited from earlier work
DENV-3 [9] = test: FACS neutralization test (FNT); assay type: cell-based, dengue virus; settings: for FACS gating percentage (FITC-positive population): 10,000 events
Experimental: Vero cells were seeded in 24 well plates at a density of 1 × 10^5 cells/well and incubated overnight. The antiviral assays were done using MOI 0.5 DENV-3, and FNT was carried out 48 h post-infection. Viral infected cells were harvested by trypsinization and centrifugation (1500 rpm, 5 min). Harvested cells were washed with PBS and fixed with 250 µL of BD Cytofix/Cytoperm™ Fixation/Permeabilization solution kit with BD GolgiStop™ (BD Biosciences, USA) solution and incubated on ice for 20 min in the dark. The cells were centrifuged at 3000 rpm for 2 min and washed two times with stain buffer (PBS + 5%FBS). Staining was performed with 50 µL of anti-dengue virus type III primary antibody, clone 5D4-11 (MAB8703 Sigma-Aldrich, USA), diluted in Cytoperm/Cytowash solution at a ratio of 1:1000 and incubated for 1 h on ice. After that, the cells were washed and stained with 50 µL of FITC-conjugated secondary antibody (Sigma-Aldrich, USA) diluted in Cytoperm/Cytowash solution at a ratio of 1:1000 and incubated for 1 h on ice in the dark. The samples were analyzed in a BD FACSCalibur flow cytometer (BD Biosciences, USA) using BD Cellquest pro software. For each sample, 10,000 events were collected, and the percent reduction in the number of infected cells was calculated using the following equation. Percentageofinhibition%=(C-T)/C×100% where, C is the percentage of viral infected cells among the 10,000 events without flavonoid treatment (control). T is the percentage of infected cells among the 10,000 events with the respective flavonoid treatment.
Percent reduction in virus-infected cells was represented as the mean ± standard error of the mean (SEM) from triplicate assays determined from three independent experiments.

DENV-3 [10] = test: Virucidal assay against extracellular DENV-3, FFURA (foci reduction); assay type: cell-based, dengue virus; settings: for IC50: extracellular DENV-3, reduction in virus foci, mean ± SEM; for Viral foci reduction at highest concentration, virucidal assay: silymarin 200 µg/mL, baicalein 100 µg/mL, baicalin 20 µg/mL, DENV-3
Experimental: (§6) The antiviral activity of flavonoids was determined by measuring the reduction in the number of DENV infectious foci after treatment. The antiviral assays were performed based on Zandi et al.[14] with minor modifications. Briefly, a confluent monolayer of Vero cells seeded in 24-well plates was treated with flavonoids before or after or with the virus infection and incubated for 4 days. The virus foci were visualized using immunostaining. The flavonoids' antiviral activities were determined by calculating the percentage of foci reduction (%RF) according to the following equation: Percentageofinhibition%=(C-T)/C×100% where, C is the number of foci without the flavonoid treatment (control). T is the number of foci with the respective flavonoid treatment.
as §4, §3

DENV-3 progeny [11] = test: Post-infection assay, intracellular DENV-3 progeny, FFURA; assay type: cell-based, dengue virus; settings: for IC50: 48 h treatment, mean ± SEM, read-out: IC50 against DENV-3 progeny, FFURA
Experimental: as §6, §2, §3

EVA-71 = settings: cited from earlier work
DENV-4 = test: Virucidal assay against DENV-4, FFURA; assay type: cell-based; settings: Dengue virus, DENV4; read-out: Viral infectivity inhibition, DENV-4
Experimental: as §6, §4

DENV-1 = test: Virucidal assay against DENV-1, FFURA; assay type: cell-based; settings: Dengue virus, DENV1; read-out: Viral infectivity inhibition, DENV-1
Experimental: as §6, §4

DENV-2 = test: Virucidal assay against DENV-2, FFURA; assay type: cell-based; settings: Dengue virus, DENV2; read-out: Viral infectivity inhibition, DENV-2
Experimental: as §6, §4

[12] = silymarin 200, baicalein 100, baicalin 20 µg/mL
[13] = Dengue virus, DENV3, post-infection assay
[14] = Dengue virus, DENV3, read-out: Maximum inhibition of intracellular viral progeny infectivity

## O=C(O)[C@H]1O[C@@H](Oc2cc3oc(-c4ccccc4)cc(=O)c3c(O)c2O)[C@H](O)[C@@H](O)[C@@H]1O [Baicalin]
DENV-3 [1]; Dengue virus, DENV3, 1 h, read-out: Viral infectivity inhibition at 60 min co-incubation (maximum)
  inhibition at 20 µg/mL: 66.9%
DENV-3 [1]; [12]
  Time taken to achieve 50% viral infectivity inhibition: 25.8 min
DENV-3 progeny [2]
  SI (CC50/IC50) against DENV-3 progeny, qRT-PCR: 12.06
  IC50: 4.53 ± 0.62 µg/mL (≈ 10.1 µM)
DENV-3 [3]
  IC50: 17.4 ± 6.51 µg/mL (≈ 39 µM)
DENV-3 [3]; extracellular DENV-3
  SI (CC50/IC50), virucidal assay, qRT-PCR: 3.14
DENV-3 [4]; Dengue virus, DENV3, Vero, read-out: Inhibition of viral attachment
  inhibition at 20 µg/mL: 48.5 ± 9.1%
Vero cells [5]
  Concentrations up to which no significant cytotoxic effects were seen: ≤ 20 µg/mL
  MNTD80 (maximum non-toxic dose, 80% of cells viable): 19.15 ± 0.07 µg/mL
[6]
  CC50 at 48 h: 54.6 ± 0.76 µg/mL (≈ 122 µM)
DENV-3 [7]; Dengue virus, DENV3, Vero, read-out: Inhibition of viral entry
  inhibition at 20 µg/mL: 49.8 ± 8.78%
Vero cells [8]
  CC50: 290.9 µg/mL (≈ 652 µM)
DENV-3 [9]; [12]
  FACS gating percentage (FITC-positive population): 42.35%
DENV-3 [9]; Dengue virus, DENV3, 48 h, read-out: Percentage of inhibition of DENV-3 infected cell population (FNT)
  inhibition at 20 µg/mL: 31.9%
DENV-3 [10]; Dengue virus, DENV3
  IC50: 7.38 ± 1.1 µg/mL (≈ 16.5 µM)
DENV-3 [10]; extracellular DENV-3
  SI (CC50/IC50), virucidal assay, FFURA: 7.40
DENV-3 [10]
  Viral foci reduction at highest concentration, virucidal assay: 76%
DENV-3 progeny [11]; [13]
  IC50: 5.31 ± 1.96 µg/mL (≈ 11.9 µM)
DENV-3 progeny [11]; [14]
  inhibition at 20 µg/mL: 81%
DENV-3 progeny [11]; post-infection assay
  SI (CC50/IC50) against DENV-3 progeny, FFURA: 10.29

## O=c1cc(-c2ccccc2)oc2cc(O)c(O)c(O)c12 [Baicalein]
EVA-71; silymarin at < 1 min contact, baicalein maximum at 60 min
  Virucidal effect against EVA-71: 60%
EVA-71; silymarin for 65% effect, baicalein for maximum of 60% effect
  Period of contact (co-incubation time) needed for the virucidal effect: 60 min
DENV-3 [1]; 0 min co-incubation, silymarin 200, baicalein 100, baicalin 20 µg/mL
  Viral infectivity inhibition achieved at 0 min: 62.45 ± 3.67%
DENV-3 [1]; 60 min co-incubation, silymarin 200, baicalein 100, baicalin 20 µg/mL
  Viral infectivity inhibition at 60 min co-incubation (maximum): 97.24%
DENV-3 [1]; [12]
  Time taken to achieve 50% viral infectivity inhibition: 0 min
DENV-3 [1]; silymarin 200, baicalein 100 µg/mL
  Co-incubation time to reach up to 75% viral infectivity inhibition: 15 min
DENV-3 progeny [2]
  IC50: 29.7 ± 12.8 µg/mL (≈ 110 µM)
DENV-3 [3]
  IC50: 17.2 ± 2.48 µg/mL (≈ 63.8 µM)
DENV-3 [4]; DENV-3 to Vero cells, silymarin 200, baicalein 100, baicalin 20 µg/mL
  Inhibition of viral attachment: 95.59 ± 1.44%
Vero cells [5]
  Concentrations up to which no significant cytotoxic effects were seen: ≤ 100 µg/mL
  MNTD80 (maximum non-toxic dose, 80% of cells viable): 122.95 ± 2.37 µg/mL
[6]; Vero cells, MTS assay, 48 h, mean ± SEM, read-out: CC50 (half maximum cytotoxic concentration)
  CC50 at 48 h: 271 ± 6.57 µg/mL (≈ 1000 µM)
DENV-3 [7]; DENV-3 into Vero cells, silymarin 200, baicalein 100, baicalin 20 µg/mL
  Inhibition of viral entry: 57.91 ± 11.65%
DENV-4
  inhibition at 100 µg/mL: 80.49 ± 0.26%
DENV-3 [9]; [12]
  FACS gating percentage (FITC-positive population): 0.44%
DENV-3 [9]; MOI 0.5, 48 h post-infection, silymarin 200, baicalein 100, baicalin 20 µg/mL
  Percentage of inhibition of DENV-3 infected cell population (FNT): 97.92%
DENV-3 [10]; Dengue virus, DENV3
  IC50: 12.7 ± 3.49 µg/mL (≈ 47 µM)
DENV-3 [10]; Dengue virus, DENV3, read-out: Viral infectivity inhibition, DENV-3
  inhibition at 100 µg/mL: 99.68 ± 0.1%
DENV-3 [10]
  Viral foci reduction at highest concentration, virucidal assay: 99.78%
DENV-1
  inhibition at 100 µg/mL: 96.7 ± 2.1%
DENV-2
  inhibition at 100 µg/mL: 97.2 ± 1.41%
DENV-3 progeny [11]; [13]
  IC50: 34.7 ± 6.71 µg/mL (≈ 128 µM)
DENV-3 progeny [11]; [14]
  inhibition at 100 µg/mL: 79.7%
